Measured values reported in publication PMC8151276, “An Integrated Approach toward NanoBRET Tracers for Analysis of GPCR Ligand Engagement” (Molecules, 2021).

Experiments:
HTR1A = target: T1, HTR1A (Homo sapiens, UniProt P08908); assay: NanoBRET screen HiBiT-HTR1A in HEK293; format: binding; conditions: HTR1A
T1 construct: purchased Promega (in-house HiBiT-GPCR construct library, NanoBRET)
T1 sequence (P08908 1-422): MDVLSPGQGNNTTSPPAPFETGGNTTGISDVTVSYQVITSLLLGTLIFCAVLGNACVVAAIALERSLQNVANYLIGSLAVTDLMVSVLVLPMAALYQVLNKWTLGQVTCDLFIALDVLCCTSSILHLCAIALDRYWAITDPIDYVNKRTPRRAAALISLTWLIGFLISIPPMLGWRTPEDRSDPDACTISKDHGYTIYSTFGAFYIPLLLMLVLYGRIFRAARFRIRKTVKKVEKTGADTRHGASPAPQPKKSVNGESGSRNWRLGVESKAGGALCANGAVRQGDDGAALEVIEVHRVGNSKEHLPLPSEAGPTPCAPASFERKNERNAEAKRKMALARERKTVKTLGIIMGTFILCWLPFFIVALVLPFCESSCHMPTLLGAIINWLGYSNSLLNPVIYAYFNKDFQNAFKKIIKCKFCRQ
Experimental: (§1) Each tracer candidate was screened across the entire library of HiBiT-GPCR constructs using NanoBRET as the detection modality. As depicted in Figure 4A, the specificity of interactions was evaluated through decrease in BRET due to competitive displacement of a bound tracer by excess parental compound. Each tracer was analyzed for binding to each HiBiT-GPCR fusion in the absence and in the presence of competing parental compound. Briefly, HEK293 cells were transfected with HiBiT-GPCR constructs diluted into promoterless DNA to reduce expression and maximize translocation to the cell surface. Each tracer candidate was then screened at concentrations of 1 μM and 0.1 μM across cells expressing these fusions. Cells were treated for 1.5 h with tracer either alone or in the presence of 20 μM competing parental compound (i.e., control). BRET was measured upon addition of purified LgBiT and subsequent complementation with HiBiT genetically fused to a GPCR. The specificity of interactions was assessed through a decrease in BRET signal due to competitive displacement of the bound tracer. To further gauge the robustness of these interactions, the fold response over the control (i.e., BRETtracer/BRETcontrol) was calculated. We chose a 1.5-fold response, which translates to ≥7-fold signal over noise as the minimal threshold required to score an interaction as positive.
(§2) HiBiT-GPCR DNA constructs were diluted in 10 mM Tris pH 8 to a final concentration of 0.01 μg/μL, arrayed in 96-well plates and stored at −20 °C. For transfection, HEK293 cells were suspended in Opti-MEM (without phenol red) supplemented with 2% fetal bovine serum (Seradigm) and 100 units/mL penicillin–streptomycin (Gibco) at a final concentration of 220,000 cells/mL and dispensed into white 96-well plates at 90 μL/well. Subsequent transfections and screens were carried using an Agilent Bravo Automated Liquid Handling Platform. First, the 96-well HiBiT DNA arrays were diluted 25-fold in Opti-MEM (without serum or phenol red) to a final concentration of 0.0004 μg/μL and 20 μL of the diluted DNAs were transferred into new 96-well plates. Next, promoterless carrier DNA (1 μg/μL) was diluted 25-fold (0.04 μg/μL) and then dispensed into the diluted arrays at 20 μL/well. Following brief mixing, Viafect transfection reagent (Promega) diluted 16-fold into Opti-MEM was dispensed into the plates at 40 μL/well. After mixing by pipetting, plates were incubated for 10 min on the pipetting station deck. The DNA-transfection reagent complexes were then added to plates containing cells. To facilitate the screen, 10 μL of DNA-transfection reagent complexes were added in duplicates to the top 4 and bottom 4 rows, resulting in two identical 48-well arrays per plate. Plates with transfected cells were incubated for 18–20 h at 37 °C/5% CO2. A screen of each tracer across the entire library using two different concentrations requires duplicate plates of transfected cells. Depending on the number of tracers being screened, transfections can be scaled up using the same ratios. The next day, for each tracer, four 20× screening solutions in tracer dilution buffer (Promega) were prepared: two duplicates at final concentration of 20 μM and two duplicates at a final concentration of 2 μM. […] The four resulting solutions were diluted 4-fold in Opti-MEM without serum or phenol red to generate 5× solutions (5 µM and 0.5 µM tracer +/− 100 μM competing compound). To screen the library, a BioTek MultiFlo FX liquid dispenser was used to dispense 22.5 µL of tracer solution to the top 4 rows and 22.5 µL tracer + competing compound solution to the 4 bottom rows. Plates were briefly mixed on an orbital shaker and incubated for 1.5 h at room temperature. […] Plates were briefly mixed on an orbital shaker and incubated for 15 min to allow complementation.

OPRM1 = target: T2, OPRM1 (Homo sapiens, UniProt P35372); assay: NanoBRET screen HiBiT-OPRM1 in HEK293; format: binding; conditions: OPRM1
T2 construct: purchased Promega (in-house HiBiT-GPCR construct library, NanoBRET)
T2 sequence (P35372 whole entry): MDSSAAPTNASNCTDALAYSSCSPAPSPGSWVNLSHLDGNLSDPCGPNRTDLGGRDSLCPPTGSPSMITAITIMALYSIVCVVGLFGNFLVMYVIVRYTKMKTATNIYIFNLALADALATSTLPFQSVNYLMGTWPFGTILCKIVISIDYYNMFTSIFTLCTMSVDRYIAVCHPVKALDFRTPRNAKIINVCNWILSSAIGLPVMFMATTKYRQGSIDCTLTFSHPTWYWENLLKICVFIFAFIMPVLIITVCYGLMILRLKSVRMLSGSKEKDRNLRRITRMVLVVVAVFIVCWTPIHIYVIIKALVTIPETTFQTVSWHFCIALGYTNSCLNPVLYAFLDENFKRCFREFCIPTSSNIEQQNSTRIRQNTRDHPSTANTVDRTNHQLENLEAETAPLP
Experimental: as §1, §2

Compound	NanoBRET Fold Response (HTR1A; tracer 0.1μM)	NanoBRET Fold Response (HTR1A; tracer 1μM)	NanoBRET Fold Response (OPRM1; tracer 0.1μM)	NanoBRET Fold Response (OPRM1; tracer 1μM)
CC(C)N(CC[C@H](c1ccccc1)c1cc(CCNC(=O)CCOCCOCCOCCOCCNC(=O)CCc2ccc3n2[B-](F)(F)[N+]2=C(c4ccc[nH]4)C=CC2=C3)ccc1O)C(C)C [Tolterodine-2-NB590]	1.14	1.06	1.23	1.10
CC(C)N(CC[C@H](c1ccccc1)c1cc(CCNC(=O)c2ccc(CNC(=O)CCc3ccc4n3[B-](F)(F)[N+]3=C(c5ccc[nH]5)C=CC3=C4)cc2)ccc1O)C(C)C [Tolterodine-BZ-NB590]	1.03	1.12	0.95	0.93
CCCn1c(=O)c2[nH]c(-c3ccc(OCC(=O)NCCNC(=O)CCOCCNC(=O)c4ccc(CNC(=O)CCc5ccc6n5[B-](F)(F)[N+]5=C(c7ccc[nH]7)C=CC5=C6)cc4)cc3)nc2n(CCC)c1=O [XAC-3-NB590]	1.01	0.89	0.85	1.02
